ChEMBL document CHEMBL1141921, “Phthalazinones. Part 1: The design and synthesis of a novel series of potent inhibitors of poly(ADP-ribose)polymerase” (Bioorg Med Chem Lett, 2005)

Columns and labels:
[1] = molecular target: Poly [ADP-ribose] polymerase 1 (Homo sapiens, UniProt P09874); assay: Inhibitory concentration against human poly (ADP-ribose) polymerase 1 (PARP-1)
[2] = In vitro metabolic stability was measured in human liver microsomes; format: ADME, Microsome
HeLa = assay: Potentiation factor (ratio of the IC50 growth curve for the alkylating agent, methyl methanesulfonate (MMS) divided by the IC50 of the curve of MMS + PARP inhibitor) against human HeLa B cells at a concentration of 200 nM; format: functional
[3] = In vitro metabolic stability was measured in mouse liver microsomes; format: ADME, Microsome

Chain of Poly [ADP-ribose] polymerase 1 (P09874 whole entry): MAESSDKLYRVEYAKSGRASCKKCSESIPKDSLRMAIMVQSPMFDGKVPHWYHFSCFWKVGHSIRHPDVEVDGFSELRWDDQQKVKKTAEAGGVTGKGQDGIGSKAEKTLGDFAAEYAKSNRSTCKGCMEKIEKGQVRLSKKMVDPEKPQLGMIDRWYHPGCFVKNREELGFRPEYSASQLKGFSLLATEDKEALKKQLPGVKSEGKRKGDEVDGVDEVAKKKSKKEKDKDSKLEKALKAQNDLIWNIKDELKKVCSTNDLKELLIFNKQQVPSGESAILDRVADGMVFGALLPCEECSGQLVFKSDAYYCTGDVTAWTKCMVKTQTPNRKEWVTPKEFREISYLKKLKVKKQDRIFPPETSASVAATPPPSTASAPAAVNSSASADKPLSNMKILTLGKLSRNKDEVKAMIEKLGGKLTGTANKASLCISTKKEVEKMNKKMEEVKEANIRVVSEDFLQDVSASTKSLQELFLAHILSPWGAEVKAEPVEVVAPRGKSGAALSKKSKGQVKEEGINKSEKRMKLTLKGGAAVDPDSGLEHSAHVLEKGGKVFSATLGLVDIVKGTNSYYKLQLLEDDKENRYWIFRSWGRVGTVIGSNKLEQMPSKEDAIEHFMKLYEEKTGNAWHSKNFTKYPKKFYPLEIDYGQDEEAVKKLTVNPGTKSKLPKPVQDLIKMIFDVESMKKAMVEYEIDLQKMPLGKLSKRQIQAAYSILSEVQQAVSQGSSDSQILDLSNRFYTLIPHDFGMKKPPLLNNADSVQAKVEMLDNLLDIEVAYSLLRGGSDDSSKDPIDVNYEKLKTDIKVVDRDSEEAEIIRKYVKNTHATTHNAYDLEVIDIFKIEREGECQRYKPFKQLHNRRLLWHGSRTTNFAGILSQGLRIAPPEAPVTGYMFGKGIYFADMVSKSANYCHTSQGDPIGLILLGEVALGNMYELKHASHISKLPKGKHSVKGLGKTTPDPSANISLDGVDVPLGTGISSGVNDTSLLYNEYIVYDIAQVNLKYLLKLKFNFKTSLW

CC(C)C(=O)Nc1cccc(Cc2nnc(O)c3ccccc23)c1
IC50 [1]: 370 nM

CCOC(=O)Nc1cccc(Cc2nnc(O)c3ccccc23)c1
IC50 [1]: 116 nM

O=C(Nc1cccc(Cc2nnc(O)c3ccccc23)c1)c1ccc(-n2cccn2)nc1
IC50 [1]: 47 nM

CCS(=O)(=O)Nc1cccc(Cc2n[nH]c(=O)c3ccccc23)c1
IC50 [1]: 290 nM

Cc1noc(-c2cccc(Cc3nnc(O)c4ccccc34)c2)n1
IC50 [1]: 189 nM

O=C1CCC(=O)N1c1cccc(Cc2n[nH]c(=O)c3ccccc23)c1
Cli [2]: < 0.05 ml min-1 g-1 liver
PF50 (HeLa): 1.74

O=C(Nc1cccc(Cc2nnc(O)c3ccccc23)c1)C(F)(F)F
IC50 [1]: 13 nM
Cli [3]: > 50 ml min-1 g-1 liver

O=C1CCC(=O)N1c1cc(Cc2n[nH]c(=O)c3ccccc23)ccc1Cl
PF50 (HeLa): 1.5

CN1CC(=O)N(c2cc(Cc3nnc(O)c4ccccc34)ccc2F)C(=O)C1
PF50 (HeLa): 3.1

O=C1CCC(=O)N1c1cc(Cc2n[nH]c(=O)c3ccccc23)ccc1F
IC50 [1]: 5 nM
PF50 (HeLa): 5.62
Cli [3]: < 1 ml min-1 g-1 liver

O=C1CC(c2ccccc2)C(=O)N1c1cc(Cc2n[nH]c(=O)c3ccccc23)ccc1F (configuration not stated)
PF50 (HeLa): 5.4

O=C(Nc1cccc(Cc2n[nH]c(=O)c3ccccc23)c1)C1CC1
IC50 [1]: 55 nM

O=C1CCCN1c1cccc(Cc2n[nH]c(=O)c3ccccc23)c1
Cli [3]: 4.9 ml min-1 g-1 liver

CCCNC(=O)Nc1cccc(Cc2n[nH]c(=O)c3ccccc23)c1
IC50 [1]: 540 nM

CC1(C)CC(=O)N(c2cc(Cc3nnc(O)c4ccccc34)ccc2F)C1=O
PF50 (HeLa): 2.9

O=C1C=CC(=O)N1c1cccc(Cc2nnc(O)c3ccccc23)c1
PF50 (HeLa): 0.94

O=C1CCCC(=O)N1c1cc(Cc2n[nH]c(=O)c3ccccc23)ccc1F
PF50 (HeLa): 3.6

O=C1c2ccccc2C(=O)N1c1cccc(Cc2n[nH]c(=O)c3ccccc23)c1
IC50 [1]: 180 nM

CC1CC(=O)N(c2cc(Cc3n[nH]c(=O)c4ccccc34)ccc2F)C1=O (configuration not stated)
PF50 (HeLa): 18.2

COc1ccc(Cc2n[nH]c(=O)c3ccccc23)cc1N1C(=O)CCC1=O
IC50 [1]: 33 nM
PF50 (HeLa): 1.5

CC(=O)Oc1cccc(Cc2n[nH]c(=O)c3ccccc23)c1
IC50 [1]: 36 nM

CCC(=O)Nc1cccc(Cc2n[nH]c(=O)c3ccccc23)c1
IC50 [1]: 20 nM
Cli [3]: 12 ml min-1 g-1 liver

O=C(Nc1cccc(Cc2n[nH]c(=O)c3ccccc23)c1)c1ccc(-c2ccsc2)s1
IC50 [1]: 56 nM

CCNC(=O)c1cccc(Cc2n[nH]c(=O)c3ccccc23)c1
IC50 [1]: 50 nM
Cli [3]: < 1 ml min-1 g-1 liver

COc1ccc(-n2cc(C(=O)Nc3cccc(Cc4n[nH]c(=O)c5ccccc45)c3)c(C)n2)cc1
IC50 [1]: 10 nM

Cc1nc(-c2ccccc2)sc1C(=O)Nc1cccc(Cc2n[nH]c(=O)c3ccccc23)c1
IC50 [1]: 27 nM

CCCC(=O)Nc1cccc(Cc2n[nH]c(=O)c3ccccc23)c1
IC50 [1]: 90 nM

O=C1C2CC2C(=O)N1c1cc(Cc2nnc(O)c3ccccc23)ccc1F (configuration not stated)
IC50 [1]: 5 nM
PF50 (HeLa): 14.4

O=c1[nH]nc(Cc2ccccc2)c2ccccc12
IC50 [1]: 770 nM
